Experimental data published in patent US20250221997A1, “TYK2 INHIBITOR FORMULATIONS AND METHODS OF MAKING THE SAME” (Takeda Pharmaceutical Company Limited, priority 2022, published 2025).
Values after ≈ are worked out from the molar mass of the structure shown. “Also recorded” adds a separate entry of the source. Values belong to the molecule of their own block, whether it stands above or below them.

Tests used:
Assay type in all cases: physicochemical
[1] = Solubility of drug substance in excipient Vitamin E TPGS
Description: Vitamin E TPGS is a commercially available, non-ionic surfactant, derived from Vitamin E. It is commonly used to enhance the bioavailability of orally administered poorly water-soluble drugs.

[2] = Solubility of Compound 1 polymorphs in aqueous systems, buffer solutions and biorelevant media; conditions: for Aqueous Solubility: Form C Lot: a, Form A Lot: b
[3] = pKa, dissociation constant and pH of saturated aqueous solution; conditions: read-out: pKa of the protonated form
Description: The pKa of the protonated form of Compound 1 was determined to be 1.94±0.01. The pH of a saturated aqueous solution of Compound 1 was 8.6.

[4] = Hygroscopicity (water sorption vs relative humidity)
[5] = Polymorph screening, competitive slurry studies and humidity storage (form stability)
Description: The key formulation challenge presented by Compound 1 was poor aqueous solubility. This could possibly limit absorption in vivo.

solubility in the excipient Vitamin E TPGS [1]: high solubility
solubility at 48 h ([2]; FaSSGF, pH 1.42, fassgf or other biorelevant, thermodynamic from solid): 34.6 µg/mL (≈ 75.1 µM)
solubility at 48 h ([2]; aqueous buffer, thermodynamic from solid, Initial Buffer pH 2.98, pH at 48 Hours 3.01, average of two runs): 18.9 µg/mL (≈ 41 µM)
solubility at 48 h ([2]; aqueous buffer, thermodynamic from solid, Initial Buffer pH 4.46, pH at 48 Hours 4.49, average of two runs): 13.3 µg/mL (≈ 28.9 µM)
solubility at 48 h ([2]; aqueous buffer, thermodynamic from solid, Initial Buffer pH 6.81, pH at 48 Hours 6.75, average of two runs): 4.1 µg/mL (≈ 8.9 µM)
solubility at 48 h ([2]; pH 8.6, thermodynamic from solid, Unbuffered water, pH at 48 Hours 8.6, average of three runs): 5.5 µg/mL (≈ 11.9 µM)
solubility at 48 h ([2]; simulated gastric fluid, thermodynamic from solid, Initial Buffer pH 1.21, pH at 48 Hours 1.19, average of two runs): 58.1 µg/mL (≈ 126 µM)
solubility at 48 h ([2]; thermodynamic from solid, FaSSIF (pH 1.64), pH at 48 Hours 1.50, average of two runs): 29.1 µg/mL (≈ 63.2 µM)
solubility at 48 h ([2]; thermodynamic from solid, FeSSIF (pH 5.03), pH at 48 Hours 5.03, average of two runs): 41 µg/mL (≈ 89 µM)
pKa [3]: 1.94
Compound: CNc1cc(Nc2cccn(-c3ccccn3)c2=O)nc2c(C(=O)N[C@@H]3CC[C@H]3OC)cnn12 [Compound 1]

Aqueous Solubility ([2]; 10 mM HCl, pH 2.0): 58 µg/mL
Aqueous Solubility ([2]; 50 mM Acetate buffer, pH 5.0): 13 µg/mL
Aqueous Solubility ([2]; 50 mM Phosphate buffer, pH 6.8): 4 µg/mL
solubility ([2]; FaSSIF, pH 6.5, fassif, thermodynamic from solid): 29 µg/mL (≈ 63 µM)
Aqueous Solubility ([2]; FaSSIF, pH 6.5): 29 µg/mL
Aqueous Solubility ([2]; FcSSIF, pH 5.0): 41 µg/mL
Aqueous Solubility ([2]; SGF, pH 1.2 (0.1% Triton X100)): 35 µg/mL
solubility ([2]; aqueous buffer, thermodynamic from solid, 50 mM Acetate buffer, pH 5.0): 13 µg/mL (≈ 28.2 µM)
solubility ([2]; aqueous buffer, thermodynamic from solid, 50 mM Phosphate buffer, pH 6.8): 4 µg/mL (≈ 8.69 µM)
solubility ([2]; aqueous with cosolvent or surfactant or cyclodextrin, thermodynamic from solid, SGF, pH 1.2 (0.1% Triton X100)): 35 µg/mL (≈ 76 µM)
solubility ([2]; simulated gastric fluid, thermodynamic from solid, 10 mM HCl, pH 2.0): 58 µg/mL (≈ 126 µM)
solubility ([2]; thermodynamic from solid, FeSSIF, pH 5.0): 41 µg/mL (≈ 89 µM)
Hygroscopicity [4]: Limited hygroscopicity
Hygroscopicity, wt gain ([4]; at 75% RH): (1.75% wt gain at 75% RH)
water sorption ([4]; between 5-95% relative humidity): 1.75%
Conversion of Form C to Form A ([5]; in water itself after 1 day): not observed
water activity, aw, above which anhydrous Form C converts to hydrate Form A ([5]; solvent slurries): 0.62-0.82
Conversion of Form C to Form A ([5]; storage at 90% RH at room temperature for 11 days): no conversion to Form A was observed
Compound: CNc1cc(Nc2cccn(-c3ccccn3)c2=O)nc2c(C(=O)N[C@@H]3CC[C@H]3OC)cnn12 [Form C]
relative stability of solid form ([5]; competitive slurry studies / polymorphs observed during development): most stable anhydrous, un-solvated form; also recorded: most stable polymorph observed to date
